Assay results taken from patent publication US20130023540A1, “TREATMENT OF MASTITIS” (BAYER HEALTHCARE AG, priority 2004, published 2013).

Experiment: investigation of the substances having an antibacterial effect in bovine milk following parenteral administration of enrofloxacin
Assay type: in vivo

## O=C(O)c1cn(C2CC2)c2cc(N3CCNCC3)c(F)cc2c1=O [ciprofloxacin, 1-cyclopropyl-7-(1-piperazinyl)-6-fluoro-1,4-dihydro-4-oxo-3-quinolonecarboxylic acid]
  proportion in the milk: ~90%

## CCN1CCN(c2cc3c(cc2F)c(=O)c(C(=O)O)cn3C2CC2)CC1 [enrofloxacin, 1-cyclopropyl-7-(4-ethyl-1-piperazinyl)-6-fluoro-1,4-dihydro-4-oxo-3-quinolone-carboxylic acid]
  antibacterial activity in bovine milk (enrichment of active compounds as compared with the serum concentration): high antibacterial activity
  proportion in the milk: ~10%
